We go through four compounds from article PMC7098370 (Toxicological Sciences, 2020).

The nature of data set [1]: Plasma toxicokinetic study. It counts as in vivo, rat. The note with it: for C max / K el / t 1/2 / Bioavailability (relative): 300 mg test item/kg PO; for Bioavailability (relative): vs CoCl2 IV; for Bioavailability calculated from AUC as % of CoCl2 IV AUC, average of m + f: relative bioavailability: oral, average of males and females.
Data set [2] in a line: Bioelution in simulated gastric fluid. The note with it: for Bioelution of Co in gastric fluid (% release), 2 h / Bioelution of Co in gastric fluid / cobalt release (µg Co/g sample), 2 h: simulated gastric fluid pH 1.5, 2 h, 37°C.
Data set [3] in a line: Bioelution in simulated intestinal fluid. The note with it: for Bioelution of Co in intestinal fluid (% release) / Bioelution of Co in intestinal fluid / cobalt release (µg Co/g sample): simulated intestinal fluid pH 7.4, 24 h.
Data set [4] has as its system rats. As to the kind of experiment: Acute oral toxicity testing. The format is in vivo, rat.
Another data set has as its system Crl:CD(SD) rats. Description: Combined RDT study with reproduction/developmental toxicity screening test. The settings on record: oral gavage. It counts as in vivo, rat.
The test system of data set [5] is rats. The note with it: oral, ref Domingo et al. (1984), cited from earlier work.
The mark [6] stands for this setting: listed as Co Sulfate Heptahydrate.

Where two headings read alike, the source gives them in different places. A value given as a limit tells only on which side of the number the result lay.

For the compound `[Li+].[O]=[Co][O-]` [CoLiO2, Cobalt lithium oxide], in data set [1] (females), the C max came out at 2.88 ng/mL, the K el amounted to 0.0568 h⁻¹, the “t 1/2” value is 12.20 h and the “Bioavailability (relative)” value was 0.25 (relative) %. Further, the “Bioavailability (relative)” value in data set [1] (females, listed as Co lithium dioxide) is 0.25%. Also, in data set [1] (males), the C max amounted to 3.45 ng/mL, the K el was 0.0535 h⁻¹, the “t 1/2” value amounted to 13.0 h and the “Bioavailability (relative)” value is reported as 0.30 (relative) %. Moreover, the “Bioavailability (relative)” value in data set [1] (males, listed as Co lithium dioxide) came to 0.3%. Also, the “Bioavailability calculated from AUC as % of CoCl2 IV AUC, average of m + f: relative bioavailability” value in data set [1] (rats) is listed as “Relative bioavailability 0.28%”. Moreover, the “Bioelution of Co in gastric fluid (% release), 2 h” value (“Bioelution of Co … (% release), 2 h” below) in data set [2] is on record as 5.9 % release. Further, the “Bioelution of Co in intestinal fluid (% release)” value in data set [3] is 0.02 (24 h) % release. For the same compound, the “Bioelution of Co in intestinal fluid / cobalt release (µg Co/g sample)” value in data set [3] (listed as Co Lithium Dioxide) is given as 134 (24 h) µg Co/g sample. Moreover, the “Acute LD50 (mg Co/kg bw)” value with rats [4] (OECD 401 or 425) was > 3011 mg Co/kg bw. Further, in the data set with rats [4] (OECD 401 or 425, listed as Co Lithium Dioxide), the “Acute LD50 (mg substance/kg bw)” value is > 5000 mg substance/kg bw.

Consider Cobalt sulfide [CoS], for which, in data set [1] (females), the C max was 2.01 ng/mL, the K el worked out at 0.0464 h⁻¹, the “t 1/2” value was 14.9 h and the “Bioavailability (relative)” value was 0.09 (relative) %. Also, in data set [1] (males), the C max amounted to 2.01 ng/mL, the K el amounted to 0.0413 h⁻¹, the “t 1/2” value was found to be 16.8 h and the “Bioavailability (relative)” value is given as 0.08 (relative) %. For the same compound, the “Bioavailability calculated from AUC as % of CoCl2 IV AUC, average of m + f: relative bioavailability” value in data set [1] (rats) is listed as “Relative bioavailability 0.08%”. Also, the oral bioavailability entry in data set [1] (single oral bolus, rats, males and females not distinguished) is recorded as “below 0.1%”. In addition, the “solubility in gastric fluid” value in data set [2] (simulated gastric fluid pH 1.5) was “poorly soluble”. The “Bioelution of Co … (% release), 2 h” value in data set [2] is listed as 0.58 % release. Besides, the “Bioelution of Co in gastric fluid / cobalt release (µg Co/g sample), 2 h” value in data set [2] (listed as Co Sulfide) is 3820 µg Co/g sample. Further, the “solubility in intestinal fluid” value in data set [3] (simulated intestinal fluid pH 7.4) is reported as “poorly soluble”. Also, the “Bioelution of Co in intestinal fluid (% release)” value in data set [3] was 0.33 (24 h) % release. In data set [3] (listed as Co Sulfide), the “Bioelution of Co in intestinal fluid / cobalt release (µg Co/g sample)” value was 2180 (24 h) µg Co/g sample. The premature deaths entry in the data set with Crl:CD(SD) rats (all doses) was “None of the exposed animals died prematurely”. In addition, in the data set on Crl:CD(SD) rats (rats), the “NOAEL (F0 generation)” value is 648 mg Co/kg bw/day, the “NOAEL (F1 generation)” value is given as > 648 mg Co/kg bw/day and the “NOAEL (reproductive toxicity)” value is on record as > 648 mg Co/kg bw/day. In addition, in the data set on rats [4] (OECD 401 or 425), the “Acute LD50 (mg Co/kg bw)” value is on record as > 7124 mg Co/kg bw and the “Acute LD50 (mg substance/kg bw)” value is given as “exceeding 11 000 mg substance/kg bw”. Besides, the “Acute LD50 (mg substance/kg bw)” value in the data set with rats [4] (OECD 401 or 425, listed as Co Sulfide) was > 11 000 mg substance/kg bw.

Turning to `[O]=[Co][OH]` [CoOOH, Cobalt oxyhydroxide], in data set [2], the “Bioelution of Co … (% release), 2 h” value is 0.85 % release. The “Bioelution of Co in gastric fluid / cobalt release (µg Co/g sample), 2 h” value in data set [2] (listed as Co Oxide Hydroxide) was 4460 µg Co/g sample. In data set [3], the “Bioelution of Co in intestinal fluid (% release)” value was 0.06 (24 h) % release. In data set [3] (listed as Co Oxide Hydroxide), the “Bioelution of Co in intestinal fluid / cobalt release (µg Co/g sample)” value was 370 (24 h) µg Co/g sample.

For the compound `O.O.O.O.O.O.O.O=S(=O)([O-])[O-].[Co+2]` [CoSO4, Cobalt sulfate heptahydrate], the “Bioelution of Co … (% release), 2 h” value in data set [2] is 99.7 % release. Also, in data set [3], the “Bioelution of Co in intestinal fluid (% release)” value was 64 (24 h) % release. Moreover, the “Bioelution of Co in intestinal fluid / cobalt release (µg Co/g sample)” value in data set [3] (setting [6]) is given as 139 000 (24 h) µg Co/g sample. In the data set on rats [5], the “Acute LD50 (mg Co/kg bw)” value is 65 mg Co/kg bw and the “Acute LD50 (mg substance/kg bw)” value is listed as “below 1000 mg substance/kg bw”. Moreover, in the data set on rats [5] (setting [6]), the “Acute LD50 (mg substance/kg bw)” value is 310 [Domingo et al. (1984)] mg substance/kg bw.
